98 compounds from ChEMBL document CHEMBL3507680, “University of Dundee, Gates Library screen for HepG2 cell viability” can be followed below.

A short description of the series: Human HepG2 cell viability assay in 384 well format. Type of series: toxicity, cell-based. More on the design: dose 125 nL, time 70.5 hour; cytotoxicity at 70.5 h: concentration not given beside the values. As to conditions: HepG2 cells, read-out: Inhibition.
In the case of `COc1ccc(C(C)NCCc2ccc(NC(C)=O)cc2)c(OC)c1` (stereo not drawn), the cytotoxicity at 70.5 h was determined as 0.0966%.

In the case of `N#Cc1ccc(CNCC2CCN(CCO)CC2)cc1`, the cytotoxicity at 70.5 h was -5.67%.

Consider `COc1cc(-n2cccc2)c(Cl)cc1C(N)=O`, for which the cytotoxicity at 70.5 h is -3.56%.

Take `CCc1cc(C(=O)N2CCCC(Cc3ccc(NC)nn3)C2)on1` (stereo not drawn): the cytotoxicity at 70.5 h was 50.7%.

On to `CC(C)OC(=O)CNC(=O)Nc1ccc(-c2nc(C(C)C)no2)cc1`, for which the cytotoxicity at 70.5 h is 2.82%.

For `Cc1nn(C)c(Cl)c1C1CCCN1C(=O)c1cc(C2CC2)on1` (stereo not drawn), the cytotoxicity at 70.5 h was 3.63%.

As for `Cc1ncc(-c2ccnc(N3CCC[C@@H]3CO)n2)c(-c2cccnc2)n1`, the cytotoxicity at 70.5 h was -3.34%.

In the case of `CC(C)C1CN(C(=O)c2ccc3nccnc3c2)CCS1` (stereo not drawn), the cytotoxicity at 70.5 h is -7.38%.

For the compound `Cc1nc(-c2ccccc2)sc1C(=O)N(C1CC1)C1CC(=O)NC1=O` (stereo not drawn), the cytotoxicity at 70.5 h is -8.02%.

Regarding `CC(C)C(NC(=O)NCCNc1ccccn1)c1cccs1` (stereo not drawn), the cytotoxicity at 70.5 h is -8.85%.

Turning to `c1cc(CN2CCO[C@H]3[C@H](OCC4CCOCC4)CC[C@@H]32)co1`, the cytotoxicity at 70.5 h was -9.4%.

For `Cc1cc(C)c2c(NCc3nncn3C3CCCCC3)ncnc2n1`, the cytotoxicity at 70.5 h is -13.6%.

Regarding `CNS(=O)(=O)CC(=O)N1CCC(c2ccc(F)c(F)c2)CC1`, the cytotoxicity at 70.5 h came out at 0.695%.

Regarding `CCN(C(=O)CN1CCCC1c1ccc(F)cc1)c1ccccc1C` (stereo not drawn), the cytotoxicity at 70.5 h was -3.01%.

In the case of `COC(=O)c1cccc(C(=O)N(C)Cc2ccsc2)c1`, the cytotoxicity at 70.5 h was found to be 22.5%.

For `O=C(NCCOCCO)[C@@]12CNC[C@@H]1CN(C1CCCC1)C2`, the cytotoxicity at 70.5 h turned out to be 2.24%.

Turning to `Cc1c(C(=O)N(C)CC(F)(F)F)nnn1-c1ccc(F)cc1`, the cytotoxicity at 70.5 h came to 0.0353%.

As to `Cc1cc(C(=O)N2CCc3ncc(CN4CCOCC4)n3CC2)no1`, the cytotoxicity at 70.5 h was found to be 28.9%.

On to `Cn1nc(Br)c2c(NCCNc3ncccn3)ncnc21`, for which the cytotoxicity at 70.5 h was -21.3%.

Consider `CCOCCn1c(=O)[nH]c2cc(C(=O)N(C)Cc3nc(C)c[nH]3)ccc21`, for which the cytotoxicity at 70.5 h is -5.85%.

In the case of `Cn1c2ncccc2c(=O)n1CC(=O)Nc1ccc(F)c(F)c1`, the cytotoxicity at 70.5 h was -3.2%.

`CC(C)n1ncc2c1NC(=O)C(C#N)C21CCCC1` (stereo not drawn): the cytotoxicity at 70.5 h is -11.3%.

In the case of `CN(Cc1ccoc1)C(=O)C1CCN(C(=O)C2CCCC2)CC1`, the cytotoxicity at 70.5 h was determined as 27.9%.

Take `CSCCc1ccc(NC(=O)NCc2ccnc(N(C)C)c2)cc1`: the cytotoxicity at 70.5 h is 16.5%.

Consider `CC(=O)N(Cc1noc(C)n1)C1CCN(CC2(O)CCCCC2)C1` (stereo not drawn), for which the cytotoxicity at 70.5 h is -27.3%.

Take `C[C@@H]1C[C@H](C(F)(F)F)n2nc(C3CCN(S(=O)(=O)N(C)C)CC3)cc2N1`: the cytotoxicity at 70.5 h was -5.83%.

For the compound `O=S1(=O)NC(C2CCN(Cc3ccncc3)CC2)Nc2ccccc21` (stereo not drawn), the cytotoxicity at 70.5 h was determined as 23.9%.

On to `Fc1ccc(-c2nnc(CN3CCCC3Cn3cccn3)o2)cc1` (stereo not drawn), for which the cytotoxicity at 70.5 h is -19.8%.

As for `CC(C)N1CCC(Cc2cncc(-c3cccc(C(=O)O)c3)n2)CC1`, the cytotoxicity at 70.5 h stood at 10.8%.

Turning to `CN1CCC(O)(CCNC(=O)[C@@]23CNC[C@@H]2CN(C2CCCC2)C3)CC1`, the cytotoxicity at 70.5 h is 11.4%.

In the case of `Cc1nc(CC(=O)N2CCN(CCOc3ccccc3)CC2)cs1`, the cytotoxicity at 70.5 h was -10.1%.

Take `Cc1cnc2[nH]c(C(F)(F)F)c(CN3CCOCC3)c2c1`: the cytotoxicity at 70.5 h was 21.8%.

For `Cc1cccnc1NCCNC(=O)C1CCN(C(=O)N(C)C)CC1`, the cytotoxicity at 70.5 h was found to be 12.2%.

Turning to `COc1ccc(OC)c(CNCc2ccnc(N3CCCCC3)c2)c1`, the cytotoxicity at 70.5 h was -8.18%.

`COCc1nc(CN2CCN(c3ccc(OC)cc3)C(=O)C2C)no1` (stereo not drawn): the cytotoxicity at 70.5 h was -27.3%.

Regarding `Cn1cc(C(=O)N2CCCC(n3cccn3)C2)c2ccccc21` (stereo not drawn), the cytotoxicity at 70.5 h came to 0.858%.

`O=C1CC2(CCSC2)C(=O)N1Cc1ncc(-c2cccc(F)c2)o1` (stereo not drawn): the cytotoxicity at 70.5 h is -1.19%.

For `COc1ccc(CNC(=O)c2nc3c(s2)CCN(C(C)=O)CC3)cc1`, the cytotoxicity at 70.5 h is -11.1%.

Turning to `Cc1ccc(CN(CCCn2ccnc2)Cc2c(F)cccc2F)s1`, the cytotoxicity at 70.5 h was 24%.

Consider `Cc1cccc(CN2CCN3C[C@H](Oc4cccnc4)C[C@H]3C2)n1`, for which the cytotoxicity at 70.5 h was -1.7%.

For the compound `CC(C)CNC(=O)c1ccc2c(=O)n(-c3ccccc3)cnc2c1`, the cytotoxicity at 70.5 h is -5.61%.

Regarding `CCOC(=O)CNC(=O)NCc1cccn1Cc1ccccc1C`, the cytotoxicity at 70.5 h was -17.6%.

Take `Cc1cc(N(C)CCC(O)c2ccccc2)n2nccc2n1` (stereo not drawn): the cytotoxicity at 70.5 h is -3.24%.

Take `CCc1nc(C2CCCN(C(=O)c3ccc(F)cc3)C2)no1` (stereo not drawn): the cytotoxicity at 70.5 h was -0.043%.

Consider `CC(NC(=O)c1cccc(CN2CCN(C)CC2)c1)c1nccs1` (stereo not drawn), for which the cytotoxicity at 70.5 h amounted to 1.61%.

Consider `NC(=O)CN1CCC2(CC1)C[C@@H](O)[C@H](c1ccccc1)NC2=O`, for which the cytotoxicity at 70.5 h is -0.832%.

As for `O=C(Cc1cccnc1)NC1COc2ccccc2C1=O` (stereo not drawn), the cytotoxicity at 70.5 h is -14.7%.

`O=C(NC1CCN(CC2CC2)C1)c1ccc(C(=O)c2cc[nH]c2)cc1` (stereo not drawn): the cytotoxicity at 70.5 h is -9.44%.

Take `CN(CCO)Cc1nnc(C2CCN(C(=O)CN3CCCC3)CC2)n1C`: the cytotoxicity at 70.5 h was -0.947%.

Regarding `COC(=O)c1ccc(NC(C)c2ccc3c(c2)NC(=O)CO3)nn1` (stereo not drawn), the cytotoxicity at 70.5 h is -1.28%.

For the compound `O=C1NCCN(C(=O)c2cn3ccsc3n2)C1c1cccc(F)c1` (stereo not drawn), the cytotoxicity at 70.5 h came to 25.9%.

Regarding `CCN(CC)C(C(=O)Nc1ccc2c(c1)CCC(=O)N2)c1ccccc1` (stereo not drawn), the cytotoxicity at 70.5 h is -11.2%.

Regarding `CN(C)Cc1cccc(C(=O)N2CCCC(n3cncn3)C2)c1` (stereo not drawn), the cytotoxicity at 70.5 h is -12.1%.

As to `CC(C)c1cc(C(=O)N(c2ccc(F)cn2)C2CCOCC2)on1`, the cytotoxicity at 70.5 h is 1.54%.

Consider `CC(=O)N1CCS(=O)(=O)[C@@H]2CCN(CC(C)C)CC[C@@H]21`, for which the cytotoxicity at 70.5 h was -6.52%.

With `CN(c1ncccc1C#N)C1CCN(CCc2ccncc2)CC1`, the cytotoxicity at 70.5 h was -1.68%.

Consider `O=C(c1cn(Cc2ccccc2)c2ncccc12)N1CCCCC1`, for which the cytotoxicity at 70.5 h came out at 3.09%.

Consider `FC(F)(F)COc1cccc(-c2nc3c([nH]2)CCNC3)c1`, for which the cytotoxicity at 70.5 h was -4.72%.

Turning to `CC(=O)N1CCCC1c1csc(Nc2cnccn2)n1` (stereo not drawn), the cytotoxicity at 70.5 h was -4.91%.

Turning to `Cc1ccc(C)c(C(C(=O)O)N2CCCN(Cc3ccccn3)CC2)c1` (stereo not drawn), the cytotoxicity at 70.5 h was -8.23%.

On to `CCOC(C)c1noc(CN2CCCNCC2)n1` (stereo not drawn), for which the cytotoxicity at 70.5 h is -5.58%.

In the case of `Cc1nc[nH]c1CN1CCCN(c2nc3ccccc3s2)CC1`, the cytotoxicity at 70.5 h is -2.7%.

On to `Cn1cc(-c2nc(CN3CCc4c(ncn4C4CC4)C3)cs2)cn1`, for which the cytotoxicity at 70.5 h was -15.2%.

As for `COc1ccc(CNC[C@H]2COCc3nc4cc(F)ccc4n32)cn1`, the cytotoxicity at 70.5 h was -18.3%.

With `CCc1[nH]c2c(CNC(=O)C3CCS(=O)(=O)CC3)cc(C)cc2c1C`, the cytotoxicity at 70.5 h is -7%.

Regarding `Cc1cc(C)c(Cn2cncn2)cc1CN1CC[C@H](CO)[C@@H](O)C1`, the cytotoxicity at 70.5 h is 6.21%.

With `CCOC(C)C(=O)N(C)C1CCN(c2ccc(OC)cc2)CC1` (stereo not drawn), the cytotoxicity at 70.5 h was -4.16%.

On to `O=C(NCCc1ccn(-c2ccc(F)cc2)n1)C1CCCO1` (stereo not drawn), for which the cytotoxicity at 70.5 h was -5.68%.

As to `NC(=O)c1cnc(NC2CCC(c3ccccc3)CC2)c(Cl)c1` (stereo not drawn), the cytotoxicity at 70.5 h was -2.31%.

Turning to `CCc1cnc(CN2CCC(N(C)Cc3noc(C)n3)C2)o1` (stereo not drawn), the cytotoxicity at 70.5 h stood at 17%.

On to `Cc1ccccc1CN1CC[C@H](c2nnc(-c3cncn3C)o2)C1`, for which the cytotoxicity at 70.5 h is 1.18%.

With `Cc1noc(CNc2ccc(C(=O)N3CCCC(C)C3)cc2C)n1` (stereo not drawn), the cytotoxicity at 70.5 h was -6.32%.

`CC(C)(C#N)CCCS(=O)(=O)c1nccn1-c1cccc(F)c1`: the cytotoxicity at 70.5 h is -10.9%.

Turning to `O=c1[nH]c(-c2ccccc2F)nc2c1CCNC2`, the cytotoxicity at 70.5 h turned out to be 14.4%.

As for `COCc1n[nH]/c(=N\C(=O)c2c3c(nc4onc(C)c24)CCC3)s1`, the cytotoxicity at 70.5 h was -3.26%.

Turning to `Fc1cnc(N2CCn3cc(CNc4ccccn4)nc3C2)nc1`, the cytotoxicity at 70.5 h was -17.4%.

As to `c1cc(CNCc2ccnc(N3CCOCC3)c2)c2c(c1)OCCO2`, the cytotoxicity at 70.5 h was -9.77%.

For `CC(C)(C)CN1CCCC2(CCN(C(=O)c3cn[nH]c3)C2)C1` (stereo not drawn), the cytotoxicity at 70.5 h is -9.2%.

Turning to `COc1ccccc1CC(=O)NCc1c(C)nc2cc(=O)[nH]n2c1C`, the cytotoxicity at 70.5 h is -8.5%.

With `Cc1nn(C)c(C)c1CC(=O)N1CCCC(n2cccn2)C1` (stereo not drawn), the cytotoxicity at 70.5 h was -2.45%.

Regarding `CCCc1nc(CNC(=O)Cc2cc(C)no2)cs1`, the cytotoxicity at 70.5 h amounted to 19.8%.

Regarding `O=C(NC1CC(=O)N(C2Cc3ccccc3C2)C1)c1cc[n+]([O-])cc1` (stereo not drawn), the cytotoxicity at 70.5 h was 9.2%.

On to `Cc1nn(C)c(C)c1C1CCCN1Cc1nc(C)c2ccccc2n1` (stereo not drawn), for which the cytotoxicity at 70.5 h stood at 5.7%.

Consider `CC(CC(=O)NS(=O)(=O)c1ccc2c(c1)OCCO2)c1ccc(F)cc1` (stereo not drawn), for which the cytotoxicity at 70.5 h was -1.76%.

For the compound `CC(C)(C)CN1CCC(c2nccnc2Nc2cnccn2)CC1`, the cytotoxicity at 70.5 h was -1.64%.

On to `c1ccc(CN2CCC3(CC2)CCN(c2ccccn2)C3)nc1`, for which the cytotoxicity at 70.5 h is -10.3%.

As to `Cc1cc(S(C)(=O)=O)c(C)c(S(=O)(=O)N2CCCC(C)C2)c1` (stereo not drawn), the cytotoxicity at 70.5 h was -7.71%.

With `COc1ncccc1C(=O)N1CCCC1c1nc(-c2ccccc2)n[nH]1` (stereo not drawn), the cytotoxicity at 70.5 h was -0.047%.

As for `O=C1CSC(c2ccc(O)cc2)c2sccc2N1` (stereo not drawn), the cytotoxicity at 70.5 h was determined as 3%.

`COc1ccc(OC)c(C(C)Nc2nc3c(C)nn(C)c3c(=O)n2C)c1` (stereo not drawn): the cytotoxicity at 70.5 h was 12.4%.

On to `Cc1[nH]ncc1CCCNC(=O)N1CCC(C(N)=O)CC1`, for which the cytotoxicity at 70.5 h was -4.17%.

Turning to `CN(Cc1cn(CC2CCNCC2)nn1)CC1CCCCO1` (stereo not drawn), the cytotoxicity at 70.5 h was -8.15%.

Consider `Cc1cc2ccccc2n1CCC(=O)N1CCN(C)CC1C(N)=O` (stereo not drawn), for which the cytotoxicity at 70.5 h was -2.15%.

Take `CCN1CCN(C(=O)c2ccn(C)c(=O)c2)CC1`: the cytotoxicity at 70.5 h was found to be 32.5%.

As for `Cc1nc2c(C(=O)N[C@H]3C[C@H]4CN(C)CCN4C3)cccc2[nH]1`, the cytotoxicity at 70.5 h was -10.2%.

Turning to `COc1ccc(S(=O)(=O)NC(=O)COC2CCCCC2)cc1C`, the cytotoxicity at 70.5 h was -4.48%.

Turning to `COCCCN1CCN(CC2CCCO2)CC1` (stereo not drawn), the cytotoxicity at 70.5 h turned out to be 22.5%.

With `CCn1ncc(S(=O)(=O)N[C@@H]2CC[C@@H](n3ccnc3C)[C@@H]2O)c1C`, the cytotoxicity at 70.5 h was -5.15%.
